Laboratory results from ChEMBL document CHEMBL4312037, “Fragment hopping-based discovery of novel sulfinylacetamide-diarylpyrimidines (DAPYs) as HIV-1 nonnucleoside reverse transcriptase inhibitors” (Eur J Med Chem, 2020).

How the values were obtained:
[1] = system: Human immunodeficiency virus 1; assay: Antiviral activity against HIV1; assay type: functional, organism-based
[2] = system: Human immunodeficiency virus 1; assay: Antiviral activity against HIV1 harbouring NNRTI K103N; assay type: functional, organism-based
[3] = target: Human immunodeficiency virus type 1 reverse transcriptase (Human immunodeficiency virus 1, UniProt Q72547)
Description: Inhibition of recombinant wild type HIV-1 His-tagged reverse transcriptase p66/p51 expressed in Escherichia coli JM109 using poly(rA)/oligo(dT)16 as template/primer incubated for 40 mins by pico-green based spectrofluorometric analysis

[4] = system: Human immunodeficiency virus 1; assay: Antiviral activity against HIV1 3B harbouring NNRTI K103N mutant infected in human MT4 cells assessed as virus-induced cytopathic effect incubated for 5 days by MTT assay; assay type: functional, organism-based; conditions: Human immunodeficiency virus 1, 3B, MT4, 120 h
in vitro [5] = conditions: human, MT4 cells; MT4 cells infected with HIV1 3B K103N mutant
Description: Selectivity index, ratio of CC50 for cytotoxicity against human MT4 cells to EC50 for antiviral activity against HIV1 3B harbouring NNRTI K103N mutant infected in human MT4 cells

in vitro [6] = conditions: human, MT4 cells; MT4 cells infected with HIV1 3B
Description: Selectivity index, ratio of CC50 for cytotoxicity against human MT4 cells to EC50 for antiviral activity against HIV1 3B infected in human MT4 cells

[7] = Cytotoxicity against human MT4 cells assessed as reduction in cell viability incubated for 5 days by MTT assay; assay type: cell-based
[8] = system: Human immunodeficiency virus 1; assay: Antiviral activity against HIV1 3B infected in human MT4 cells assessed as virus-induced cytopathic effect incubated for 5 days by MTT assay; assay type: functional, organism-based; conditions: Human immunodeficiency virus 1, 3B, MT4, 120 h
[9] = Stability in human liver microsomes assessed as intrinsic clearance; assay type: ADME, Microsome; conditions: read-out: CLH
[10] = Stability in rat liver microsomes assessed as half life; assay type: ADME, Microsome
[11] = Stability in rat liver microsomes assessed as intrinsic clearance; assay type: ADME, Microsome; conditions: read-out: CLH
[12] = Stability in human liver microsomes assessed as half life; assay type: ADME, Microsome

| SMILES | EC50 [1] | EC50 [2] | IC50 [3] | EC50 [4] | selectivity ratio (in vitro [5]) | selectivity ratio (in vitro [6]) | CC50 at 120 h [7] | EC50 [8] | microsomal CLint [9] | half-life [10] | microsomal CLint [11] | half-life [12] |
| --- | --- | --- | --- | --- | --- | --- | --- | --- | --- | --- | --- | --- |
| O=C(CSc1nnc(Br)n1-c1ccc(C2CC2)c2ccccc12)Nc1ccc(C(=O)O)cc1Cl | 2.85 nM | < 3 nM |  |  |  |  |  |  |  |  |  |  |
| COc1cc2nc([S+]([O-])CC(=O)Nc3ccc([N+](=O)[O-])cc3)nc(Nc3c(C)cc(/C=C/C#N)cc3C)c2cc1OC (configuration not stated) |  |  | 11 nM | 15.7 nM | 12100 | 4590 | 189000 nM | 41.2 nM |  |  |  |  |
| COc1cc2nc([S+]([O-])CC(=O)Nc3ccc(S(N)(=O)=O)cc3)nc(Nc3c(Cl)cc(/C=C/C#N)cc3Cl)c2cc1OC (configuration not stated) |  |  |  | 9190 nM | > 21 | > 10 | > 189000 nM | 19300 nM |  |  |  |  |
| COc1cccc(NC(=O)C[S+]([O-])c2nc(Nc3c(Cl)cc(/C=C/C#N)cc3Cl)c3cc(OC)c(OC)cc3n2)c1 (configuration not stated) |  |  |  | 465 nM | ≥ 439 | ≥ 70 | ≥ 167000 nM | 2370 nM |  |  |  |  |
| COc1cc2nc(Nc3ccc(C#N)cc3)nc(Nc3c(C)cc(/C=C/C#N)cc3C)c2cc1OC |  |  | 550 nM | 10.4 nM | 986 | 806 | 10200 nM | 12.7 nM |  |  |  |  |
| COc1ccccc1NC(=O)C[S+]([O-])c1nc(Nc2c(Cl)cc(/C=C/C#N)cc2Cl)c2cc(OC)c(OC)cc2n1 (configuration not stated) |  |  |  | 1540 nM | > 132 | > 63 | > 204000 nM | 3220 nM |  |  |  |  |
| COc1cc2nc(SCC(=O)Nc3ccc(C#N)cc3)nc(Nc3c(C)cc(/C=C/C#N)cc3C)c2cc1OC |  |  | 3630 nM | 201 nM | > 1130 | > 746 | > 227000 nM | 304 nM |  |  |  |  |
| COc1cc2nc(Nc3ccc(C#N)cc3)nc(Nc3c(Cl)cc(/C=C/C#N)cc3Cl)c2cc1OC |  |  | 46 nM | 6.3 nM | 1580 | 1890 | 9920 nM | 5.3 nM |  |  |  |  |
| COc1cc2nc([S+]([O-])CC(=O)Nc3ccc(C#N)cc3)nc(Nc3c(C)cc(/C=C/C#N)cc3C)c2cc1OC (configuration not stated) |  |  | 5.7 nM | 10.4 nM | > 21200 | > 8870 | > 221000 nM | 24.9 nM | 8.45 µL/min/mg | 1.35 h | 8.58 µL/min/mg | 1.37 h |
| COc1cc2nc([S+]([O-])CC(=O)Nc3cc([N+](=O)[O-])ccc3F)nc(Nc3c(Cl)cc(/C=C/C#N)cc3Cl)c2cc1OC (configuration not stated) |  |  |  | 6000 nM | > 32 | > 24 | > 194000 nM | 8080 nM |  |  |  |  |
| COc1cc2nc([S+]([O-])CC(=O)Nc3ccc(C)cc3)nc(Nc3c(Cl)cc(/C=C/C#N)cc3Cl)c2cc1OC (configuration not stated) |  |  |  | 49 nM | 657 | 98 | 32200 nM | 327 nM |  |  |  |  |
| COc1cc2nc(SCC(=O)Nc3ccc([N+](=O)[O-])cc3)nc(Nc3c(C)cc(/C=C/C#N)cc3C)c2cc1OC |  |  | 4000 nM | 358 nM | > 612 | > 292 | > 219000 nM | 749 nM |  |  |  |  |
